Reference: ChEMBL document CHEMBL1201862, “PubChem BioAssay data set” (2004)
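Assay format: 96-well plates, 48-hour exposure. GI50 marks 50% less growth.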 The source made the active and inactive calls. Cut-off read from the data, not from the text of the source: active = GI50 up to about 1.1 µM and inactive = higher.

Tests used:
Experiment in all cases: NCI tumour cell line growth inhibition, 48 h
[1] = system: A549
[2] = system: RXF 393
[3] = system: U-251
[4] = system: SF-295
[5] = system: OVCAR-8
[6] = system: HL-60
[7] = system: SN12C
[8] = system: HCT-116
[9] = system: SK-OV-3
[10] = system: RPMI-8226
[11] = system: SF-539
[12] = system: IGROV-1
[13] = system: SW-620
[14] = system: HOP-62
[15] = system: SK-MEL-5
[16] = system: TK-10
[17] = system: 786-0
[18] = system: MOLT-4
[19] = system: LOX IMVI
[20] = system: K562
[21] = system: HT-29
[22] = system: HOP-18
[23] = system: UO-31
[24] = system: NCI-H522
[25] = system: COLO 205
[26] = system: LXFL 529
[27] = system: NCI-H23
[28] = system: CAKI-1
[29] = system: NCI-H460
[30] = system: DLD-1
[31] = system: M14
[32] = system: DMS-273
[33] = system: KM-20L2
[34] = system: HOP-92
[35] = system: M19-MEL
[36] = system: CCRF-CEM
[37] = system: XF498
[38] = system: UACC-62
[39] = system: EKVX
[40] = system: HCT-15

For Cc1nc2ccccc2c(=O)n1/N=C(\N=N\c1cccc(Cl)c1)c1ccccc1Cl, the GI50 [1] was > 100 µM (inactive), the GI50 [2] was 21.7 µM (inactive) and the GI50 [3] was 37.9 µM (inactive). The GI50 [4] was 30.4 µM (inactive), the GI50 [5] was > 100 µM (inactive) and the GI50 [6] was > 10 µM (inactive). The GI50 [7] was > 100 µM (inactive), the GI50 [8] was 36 µM (inactive) and the GI50 [9] was 25.8 µM (inactive). For the same compound, the GI50 [10] was > 100 µM (inactive), the GI50 [11] was 25.3 µM (inactive) and the GI50 [12] was > 10 µM (inactive). The GI50 [13] was > 100 µM (inactive), the GI50 [14] was 37.8 µM (inactive) and the GI50 [15] was > 100 µM (inactive). For the same compound, the GI50 [16] was 49.4 µM (inactive), the GI50 [17] was 83 µM (inactive) and the GI50 [18] was > 10 µM (inactive). For the same compound, the GI50 [19] was > 100 µM (inactive), the GI50 [20] was 0.57 µM (active) and the GI50 [21] was > 100 µM (inactive). The GI50 [22] was 1.48 µM (inactive), the GI50 [23] was 99.3 µM (inactive) and the GI50 [24] was 29 µM (inactive). The GI50 [25] was > 10 µM (inactive), the GI50 [26] was > 10 µM (inactive) and the GI50 [27] was 64.9 µM (inactive). The GI50 [28] was > 100 µM (inactive), the GI50 [29] was 49.9 µM (inactive) and the GI50 [30] was 75.5 µM (inactive). For the same compound, the GI50 [31] was > 100 µM (inactive), the GI50 [32] was 50.2 µM (inactive) and the GI50 [33] was > 100 µM (inactive). The GI50 [34] was 29.9 µM (inactive), the GI50 [35] was > 100 µM (inactive) and the GI50 [36] was > 10 µM (inactive). For the same compound, the GI50 [37] was 2.29 µM (inactive), the GI50 [38] was > 100 µM (inactive) and the GI50 [39] was 69.8 µM (inactive). The GI50 [40] was > 100 µM.
